In publication PMC3508466 (Chemistry & biology, 2012):
pKi: −log10 of the molar value. “And” between values parts separate entries of the source, which are not always exact repeats. Equal values may be shown once. “Also recorded” adds a separate entry of the source. Read-outs that look alike come from different tables or passages of the source.

Experiments:
[1] = biological target: T1, ClC-ec1 (Escherichia coli, UniProt P37019); test: Cl− efflux assay, ClC-ec1 reconstituted into liposomes; format: biochemical, E. coli; conditions: for inhibition of ClC-ec1 by parent compounds: concentrations up to 1 mM
[2] = biological target: T1, ClC-ec1; conditions: for Hill coefficient n / Imax (maximal inhibition): cis chamber
[3] = biological target: T1, ClC-ec1
[4] = system: ClC-ec1 R23 and K30 mutant; test: Cl− efflux assay, ClC-ec1 with R23 and K30 mutated; format: biochemical, E. coli
[5] = system: ClC-ec1 intracellular vestibule triple mutant; format: biochemical, E. coli
[6] = system: ClC-ec1 R17, R18, and R19 mutant; test: Cl− efflux assay, ClC-ec1 with R17, R18 and R19 mutated; format: biochemical, E. coli
[7] = system: ClC-ec1 R160, R167 and R174 mutant; test: Cl− efflux assay, ClC-ec1 with R160, R167 and R174 mutated; format: biochemical; conditions: E. coli polar lipids
[8] = biological target: ClC-ec1 K169A mutant (Escherichia coli, UniProt P37019, K169A); conditions: E. coli polar lipids
[9] = biological target: human ClC-1 (Homo sapiens, UniProt P35523); test: Inside-out patches excised from Xenopus oocytes expressing human ClC-1; format: cell-based; conditions: 30 μM
[10] = biological target: ClC-ec1 R28A/K216A mutant (Escherichia coli, UniProt P37019, K216A/R28A); conditions: E. coli polar lipids
ClC-ec1 R28A/K216A mutant, sequence (P37019 whole entry R28A/K216A): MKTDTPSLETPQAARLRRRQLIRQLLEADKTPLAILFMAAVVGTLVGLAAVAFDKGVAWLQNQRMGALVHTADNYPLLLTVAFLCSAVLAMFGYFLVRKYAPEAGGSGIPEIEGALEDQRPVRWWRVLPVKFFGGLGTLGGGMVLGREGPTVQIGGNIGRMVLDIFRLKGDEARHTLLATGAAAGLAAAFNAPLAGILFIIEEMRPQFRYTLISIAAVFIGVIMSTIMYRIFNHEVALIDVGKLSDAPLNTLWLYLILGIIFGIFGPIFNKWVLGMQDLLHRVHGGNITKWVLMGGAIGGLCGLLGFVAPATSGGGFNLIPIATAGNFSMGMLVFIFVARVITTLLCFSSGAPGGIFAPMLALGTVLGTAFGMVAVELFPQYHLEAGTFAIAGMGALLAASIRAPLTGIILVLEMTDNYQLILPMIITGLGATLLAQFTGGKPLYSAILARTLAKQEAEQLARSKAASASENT

T1 sequence (P37019 whole entry): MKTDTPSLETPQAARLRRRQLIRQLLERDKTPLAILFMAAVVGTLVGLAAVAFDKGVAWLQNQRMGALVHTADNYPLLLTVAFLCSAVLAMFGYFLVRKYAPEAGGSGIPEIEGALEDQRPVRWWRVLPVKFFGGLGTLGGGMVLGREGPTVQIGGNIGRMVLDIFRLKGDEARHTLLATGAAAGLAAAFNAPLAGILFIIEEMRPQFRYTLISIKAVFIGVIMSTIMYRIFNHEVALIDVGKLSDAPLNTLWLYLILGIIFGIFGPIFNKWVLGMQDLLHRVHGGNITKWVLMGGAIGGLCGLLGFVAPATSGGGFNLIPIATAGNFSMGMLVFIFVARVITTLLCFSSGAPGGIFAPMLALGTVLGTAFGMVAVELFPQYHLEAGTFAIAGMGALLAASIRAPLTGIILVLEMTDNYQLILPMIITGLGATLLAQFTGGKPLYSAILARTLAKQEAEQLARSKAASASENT
ClC-ec1 K169A mutant, sequence (P37019 whole entry K169A): as the sequence (P37019 whole entry R28A/K216A) above, with A28R, K169A, A216K counted along it
human ClC-1, sequence (P35523 whole entry): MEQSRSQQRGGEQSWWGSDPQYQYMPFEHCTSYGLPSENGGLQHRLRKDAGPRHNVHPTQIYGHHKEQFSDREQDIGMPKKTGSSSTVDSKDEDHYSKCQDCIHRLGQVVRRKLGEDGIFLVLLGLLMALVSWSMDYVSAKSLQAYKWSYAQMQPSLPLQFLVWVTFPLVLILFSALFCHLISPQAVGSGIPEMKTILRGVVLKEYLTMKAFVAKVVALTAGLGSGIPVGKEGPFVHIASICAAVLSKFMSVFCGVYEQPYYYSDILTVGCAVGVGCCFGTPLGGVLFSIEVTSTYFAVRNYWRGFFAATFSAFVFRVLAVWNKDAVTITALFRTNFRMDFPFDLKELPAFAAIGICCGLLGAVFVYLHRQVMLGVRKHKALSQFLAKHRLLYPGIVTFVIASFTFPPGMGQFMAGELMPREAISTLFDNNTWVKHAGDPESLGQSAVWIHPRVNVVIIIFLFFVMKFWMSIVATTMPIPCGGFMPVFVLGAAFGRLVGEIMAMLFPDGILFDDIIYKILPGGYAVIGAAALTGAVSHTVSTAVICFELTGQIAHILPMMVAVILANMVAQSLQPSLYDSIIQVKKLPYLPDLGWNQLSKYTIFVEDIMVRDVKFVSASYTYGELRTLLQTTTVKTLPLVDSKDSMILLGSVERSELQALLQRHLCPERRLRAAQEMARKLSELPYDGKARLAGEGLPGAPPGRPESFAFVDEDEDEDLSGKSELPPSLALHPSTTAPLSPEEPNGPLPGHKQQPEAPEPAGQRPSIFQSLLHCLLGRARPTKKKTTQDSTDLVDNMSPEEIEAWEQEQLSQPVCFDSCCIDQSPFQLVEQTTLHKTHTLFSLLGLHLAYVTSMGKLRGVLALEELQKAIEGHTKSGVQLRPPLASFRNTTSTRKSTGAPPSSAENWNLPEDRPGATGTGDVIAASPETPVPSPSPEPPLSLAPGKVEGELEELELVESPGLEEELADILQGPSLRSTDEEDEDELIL

`O=C(O)C(Cc1ccc(Cl)cc1)Oc1ccc(Cl)cc1` (stereo not drawn) [2-(p-chlorophenoxy)-3-(4-chlorophenyl)propionic acid] was tested, and the “inhibition of ClC-ec1 by known CLC channel inhibitors (lead panel)” value (“inhibition of ClC-ec1 … (lead panel)” for short) [1] was “None of these compounds inhibited ClC-ec1”.

`O=C(O)c1c2ccccc2cc2ccccc12` [9-anthracene carboxylate] was tested, and the “inhibition of ClC-ec1 … (lead panel)” value [1] was “None of these compounds inhibited ClC-ec1”.

For `Nc1ccc(C=Cc2ccc(N)cc2S(=O)(=O)O)c(S(=O)(=O)O)c1` [DADS, 4,4′-diaminostilbene-2,2′-disulfonate], the “inhibition of ClC-ec1 … (lead panel)” value [1] was “None of these compounds inhibited ClC-ec1” and the “inhibition of ClC-ec1 by parent compounds” value [1] was “neither parent compound detectably inhibited ClC-ec1”.

For `O=S(=O)(O)c1cc(N=C=S)ccc1C=Cc1ccc(N=C=S)cc1S(=O)(=O)O` [DIDS, 4,4′-diisothiocyano-2,2′-stilbenedisulfonic acid, reference compound], the “effect of DIDS added after OADS to the same chamber” value [2] was “has no effect” and the “effect of DIDS applied to the opposite chamber from OADS” value [2] was “significant additional inhibition”.

`O=C(O)c1cc([N+](=O)[O-])ccc1NCCCc1ccccc1` [NPPB, 5-nitro-2-(3-phenylpropylamino)benzoic acid] was tested, and the “inhibition of ClC-ec1 … (lead panel)” value [1] was “None of these compounds inhibited ClC-ec1”.

In the case of `CCCCCCCC(=O)Nc1ccc(C=Cc2ccc(NC(=O)CCCCCCC)cc2S(=O)(=O)O)c(S(=O)(=O)O)c1` [OADS, 4,4′-octanamidostilbene-2,2′-disulfonate], the “effect on Cl− binding to ClC-ec1” value [3] was “no significant effect on Cl^− binding to ClC-ec1”, the “effect of mutation on OADS inhibition” value [4] was “had no effect on OADS inhibition” and the “effect of mutation on inhibition by OADS” value [5] was “has no effect on inhibition by OADS”. For the same molecule, the “effect of mutation on OADS inhibition” value [6] was “had no effect on OADS inhibition”, the “influence of mutation on OADS inhibition” value [7] was “had no influence” and the “inhibition of ClC-ec1” value ([1]; 30 μM, PE/PG liposomes) was 84%. It also gave a pKi ([1]; PE/CLN liposomes) of 4.49, a Hill coefficient n ([1]; PE/PG liposomes) of 1.9 and a pKi ([1]; PE/PG liposomes) of 5.14. The Hill coefficient n ([1]; liposomes from E. coli polar lipids) was 1.9, the pKi ([1]; read-out: Ki (apparent affinity, concentration for half-maximal inhibition), liposomes from E. coli polar lipids, pH 4.0) was ~4.52 and 4.54 and the “increase in potency compared to either parent compound” value ([1]; versus octanoic acid and DADS) was “over 100 fold”. For the same molecule, the pKi [8] was 4.17, the “change in sensitivity to OADS versus wild type” value [8] was “two-fold decrease in sensitivity” and the “effect of OADS applied to the opposite chamber from DIDS” value [2] was “significant additional inhibition”. The “time to complete reversal of inhibition after perfusion with OADS-free solution” value ([2]; 3.3 μM OADS in trans chamber, 4 min is minimum for full perfusion) was 4 to 10 min, the “effect of OADS added after DIDS to the same (cis) chamber” value ([2]; 1 mM DIDS then 15 μM OADS) was “no additional inhibition; also recorded: has no effect” and the Hill coefficient n ([2]; +100 mV) was 3.9. For the same molecule, the “Imax (maximal inhibition)” value ([2]; +100 mV) was 34%, the maximal inhibition ([2]; OADS added to cis chamber, voltage not specified) was ~ 40% and the Hill coefficient n ([2]; −100 mV) was 6.1. For the same molecule, the “Imax (maximal inhibition)” value ([2]; −100 mV) was 40% and the “inhibition of ClC-1” value [9] was 20%.

For `CCCCCCCC(=O)Nc1ccc(/C=C\c2ccc(NC(=O)CCCCCCC)cc2S(=O)(=O)O)c(S(=O)(=O)O)c1` [cis-OADS], the “potency on R28A/K216A relative to trans-OADS” value [10] was “just as potently as trans-OADS” and the “ClC-1 inhibition, cis versus trans isomer” value [9] was “equally inhibited by both the cis and trans-OADS isomers”.

For `O=C(O)c1ccccc1Nc1cccc(C(F)(F)F)c1` [flufenamic acid], the “inhibition of ClC-ec1 … (lead panel)” value [1] was “None of these compounds inhibited ClC-ec1”.

In the case of `O=C(O)c1cccnc1Nc1cccc(C(F)(F)F)c1` [niflumic acid], the “inhibition of ClC-ec1 … (lead panel)” value [1] was “None of these compounds inhibited ClC-ec1”.

With `CCCCCCCC(=O)O` [octanoic acid] the “inhibition of ClC-ec1 … (lead panel)” value [1] was “None of these compounds inhibited ClC-ec1” and the “inhibition of ClC-ec1 by parent compounds” value [1] was “neither parent compound detectably inhibited ClC-ec1”.
